Data reported in EP0913399A1, “Silver -2-mercapto sodium benzoate pharmaceutical compound and process for obtaining the same” (Korban Medical S.a.s. di Longhetti Gianna & C., priority 1997, dated 1999).
Counter-ions that a name gives are not always drawn.

Key:
[1] = effects to the skin (photosensitization, irritating, caustic)
solubility = type: physicochemical
tested organism = test: MIC comparison of equivalent ionic doses of Ag^+ from thiometal and from nitrate; antibacterial action of the anion; type: cell-based

SMILES: O=C(O)c1ccccc1[S][Ag] [silver-2-mercapto sodium benzoate]
- caustic effects to the skin [1]: does not cause
- irritating effects to the skin [1]: does not cause
- photosensitization [1]: does not cause
- Solubility (solubility; DMSO): moderately soluble
- Solubility (solubility; absolute ethanol): insoluble
- Solubility (solubility; acetone): insoluble
- Solubility (solubility; ether): insoluble
- Solubility (solubility; water (cold)): soluble
- activity in MIC in favour of the thiometal (tested organism; comparison of equivalent ionic doses of Ag^+ from thiometal and from nitrate, variable depending on the tested organism): -1.6 to -50 mcg/ml

SMILES: O=C(O)c1ccccc1S [mercapto sodium benzoate anion, sodium salt of the 2-mercaptobenzoic acid, reference compound]
- antibacterical action (tested organism): does not develop an antibacterical action
